The series has as its system HEK 293 cell lines expressing luciferase, GPC3-hFc, NTSR1-GFP, SERT-GFP. The experiment in a line: Validation transfection of siRNAs against ten selected genes in four HEK 293 cell lines expressing different reporter proteins. It counts as cell-based, human. The following applies: 40 nM, 1 representative siRNA per gene; for expression of reporter proteins: luciferase, GPC3-hFc, NTSR1-GFP, SERT-GFP. How it is done:
Ten targeted genes were selected and tested in four HEK 293 cell lines expressing different reporter proteins, glycan-3 hFc-fision protein (GPC3-hFc), neurotensin receptor type 1-GFP (NTSR1-GFP) and serotonin transporter-GFP (SERT-GFP), using 1 representative siRNA for each gene. Transfection was performed in 12-well plate format. 500 μL of serum free DMEM media containing siRNA and Lipofectamine™ RNAiMax was incubated in each well for 20 min at ambient temperature and 500 μL DMEM containing 20% FBS and cells was then added for transfection. The final siRNA concentration in each well was 40 nM. Lipofectamine™ RNAiMax volume and cell seeding number in each well have been optimized for each cell line (Table 2).
5 days after transfection, clarified cell culture supernatant was used for determination of GPC3-hFc concentration by ELISA and cells were detached and counted by trypan blue exclusion using a CEDEX™ cell quantification system (Roche, Mannheim, Germany). AffiniPure™ F(ab′)2 Fragment Goat Anti-Human IgG (min X Bov, Ms, Rb Sr Prot, Cat. 109-006-170, Jackson Immunology, 5 μg/mL in PBS) was used to coat a 96-well plate (50 μL per well) at 4° C. overnight. After blocking the plate with 2% BSA in PBS, 50 μl of pre-diluted cell culture supernatant was added, and the plate was incubated at room temperature for 1 h to allow binding to occur. After the plate was washed twice with PBS containing 0.05% Tween 20, Peroxidase-conjugated AffiniPure™ Goat-anti-human IgG (Cat. 109-035-098, Jackson Immunology) was added at 1:4000 dilution (50 μL/well). Following incubation at room temperature for 1 hr, the plate was washed 4 times and signals were detected with Peroxidase Substrate System (KPL).
3 days after transfection, cells were induced with 1 μg/mL tetracycline. 24 hours later, cells from each well were detached with non-enzymatic cell dissociation buffer (Gibco, Cat. No. 13150-016) and washed twice with cold PBS. Cell densities were adjusted to 0.5 million cells/ml with PBS and then subjected to flow cytometry analysis. Green fluorescence was measured with Guava Easycyte 5HT™ and Incyte™ software (Millipore). The green fluorescence signal and cell gating were adjusted using uninduced T-REx-293-NTSR1-GFP cells, with more than 99.5% of the cells in low fluorescence range (<100). The setting was kept the same for all cell samples.

On to “INTS1 siRNA: 1 representative siRNA for gene INTS1 used in validation transfection; sequence not stated (guide AGAUCUUUGUCAAGGUGUATT; other strand without entry, further chemistry not given here; listed as Homo sapiens)”, for which the viable cell number result is on record as “significantly reduced viable cell number” and the “expression of reporter proteins” value is listed as “consistently improved”.

Regarding “PPP2R1A siRNA: 1 representative siRNA for gene PPP2R1A used in validation transfection; sequence not stated (guide CUUCGACAGUACUUCCGGATT; other strand without entry, further chemistry not given here; listed as Homo sapiens)”, the viable cell number entry is listed as “minimal negative effects” and the “expression of reporter proteins” value is on record as “consistently improved”.

For the origin of these results see patent US20160319277A1, “METHODS OF IMPROVED PROTEIN PRODUCTION USING MIRNAs AND SIRNAs” (THE JOHNS HOPKINS UNIVERSITY, priority 2015, published 2016).
